Format in all cases: biochemical
Experiment [1] has as its target T1, mouse PDGF-β receptor tyrosine kinase (Mus musculus, UniProt P05622).
T1 construct: amplify a fragment of DNA that codes for the intracellular tyrosine kinase domain; made in house; host or cells: SF9 insect cells, baculovirus (cell lysate used)
Nature of the experiment: PDGF receptor tyrosine kinase assay (PDGFr-TK). Conditions: 10 min at 25° C., glutamate-tyrosine co-polymer substrate; read-out: PDGFr-TK inhibition, IC50. How it is done:
SF9 insect cells were infected with the virus to overexpress the protein, and the cell lysate was used for the assay. […] The reaction was terminated by the addition of 100 μL of 30% trichloroacetic acid (TCA) containing 20 mM sodium pyrophosphate and precipitation of material onto glass fiber filter mats (Wallac). […] Nonspecific activity was defined as radioactivity retained on the filters following incubation of samples with buffer alone (no enzyme). Specific enzymatic activity was defined as total activity (enzyme plus buffer) minus nonspecific activity.

The target in another experiment is T2, C-src kinase (Homo sapiens, UniProt P12931).
T2 construct: made in house; host or cells: baculovirus infected insect cells
T2 sequence (P12931 whole entry): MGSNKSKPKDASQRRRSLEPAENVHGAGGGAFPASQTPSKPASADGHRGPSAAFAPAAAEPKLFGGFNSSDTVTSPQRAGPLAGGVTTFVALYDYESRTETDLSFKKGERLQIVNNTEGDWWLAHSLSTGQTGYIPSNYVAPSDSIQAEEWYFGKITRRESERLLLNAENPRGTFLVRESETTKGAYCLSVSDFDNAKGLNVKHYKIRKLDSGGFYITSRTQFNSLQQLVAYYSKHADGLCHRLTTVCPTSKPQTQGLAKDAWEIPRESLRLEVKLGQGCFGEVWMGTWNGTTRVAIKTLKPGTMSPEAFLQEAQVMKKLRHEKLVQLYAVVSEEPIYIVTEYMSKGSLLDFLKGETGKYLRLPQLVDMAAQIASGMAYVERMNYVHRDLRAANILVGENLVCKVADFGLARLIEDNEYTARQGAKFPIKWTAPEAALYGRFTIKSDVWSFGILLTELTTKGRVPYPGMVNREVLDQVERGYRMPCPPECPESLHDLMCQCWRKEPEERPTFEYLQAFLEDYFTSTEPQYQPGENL
The experiment is described as follows: C-src kinase assay. The settings on record: poly GluTyr substrate, 10 min, room temperature; read-out: C-src TK inhibition, IC50. How it is done: The antibody, covalently linked to 0.65-μm latex beads, is added to a suspension of insect cell lysis buffer comprised of 150 mM NaCl, 50 mM Tris pH 7.5, 1 mM DTT, 1% NP-40, 2 mM EGTA, 1 mM sodium vanadate, 1 mM PMSF, 1 μg/mL each of leupeptin, pepstatin, and aprotinin. […] At the end of the lysate incubation, the beads are rinsed 3 times in lysis buffer, resuspended in lysis buffer containing 10% glycerol, and frozen. These latex beads are thawed, rinsed 3 times in assay buffer which is comprised of 40 mM tris pH 7.5, 5 mM MgCl2, and suspended in the same buffer. […] The reaction is started at room temperature by addition of the ATP and quenched 10 minutes later by the addition of 125 μL of 30% TCA, 0.1M sodium pyrophosphate for 5 minutes on ice. The plate is then filtered and the wells washed with two 250-μL aliquots of 15% TCA, 0.1M pyrophosphate. The filters are punched, counted in a liquid scintillation counter, and the data examined for inhibitory activity in comparison to a known inhibitor such as erbstatin. The method is described more fully in J. Med. Chem., 37:598-609 (1994).

The target of experiment [2] is T3, human FGF-1 (flg) receptor tyrosine kinase (Homo sapiens, UniProt P11362).
T3 construct: amplify a fragment of DNA that codes for the intracellular tyrosine kinase domain; made in house; host or cells: SF9 insect cells, baculovirus (cell lysate used)
T3 sequence (P11362 478-767 limits assumed): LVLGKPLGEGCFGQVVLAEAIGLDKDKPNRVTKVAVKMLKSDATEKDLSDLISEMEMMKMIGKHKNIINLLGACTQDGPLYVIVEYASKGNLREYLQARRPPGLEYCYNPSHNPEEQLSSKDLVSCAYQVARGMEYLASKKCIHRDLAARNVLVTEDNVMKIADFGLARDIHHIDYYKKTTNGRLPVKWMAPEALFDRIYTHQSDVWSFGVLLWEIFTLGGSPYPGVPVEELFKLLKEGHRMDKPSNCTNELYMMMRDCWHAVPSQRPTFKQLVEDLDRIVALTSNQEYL
Nature of the experiment: FGF receptor tyrosine kinase assay (FGFr-TK). The settings on record: 10 min at 25° C., glutamate-tyrosine co-polymer substrate; read-out: FGFr-TK inhibition, IC50. The text has this:
PDGF and FGF Receptor Tyrosine Kinase Assays
Full length cDNAs for the mouse PDGF-β and human FGF-1 (flg) receptor tyrosine kinases were obtained from J. Escobedo and prepared as described in J. Biol. Chem., 262:1482-1487 […], and PCR primers were designed to amplify a fragment of DNA that codes for the intracellular tyrosine kinase domain. The fragment was melded into a baculovirus vector, cotransfected with AcMNPV DNA, and the recombinant virus isolated. SF9 insect cells were infected with the virus to overexpress the protein, and the cell lysate was used for the assay. […] Briefly, to each well was added 82.5 μL of incubation buffer containing 25 mM Hepes (pH 7.0), 150 mM NaCl, 0.1% Triton X-100, 0.2 mM PMSF, 0.2 mM Na3 VO4, 10 mM MnCl2, and 750 μg/mL of Poly (4:1) glutamate-tyrosine followed by 2.5 μL of inhibitor and 5 μL of enzyme lysate (7.5 μg/μL FGF-TK or 6.0 μg/μL PDGF-TK) to initiate the reaction. Following a 10 minute incubation at 25° C., 10 μL of γ^32 P-ATP (0.4 μCi plus 50 μM ATP) was added to each well and samples were incubated for an additional 10 minutes at 25° C. […] Nonspecific activity was defined as radioactivity retained on the filters following incubation of samples with buffer alone (no enzyme). […]

T1 sequence (P05622 599-961 limits assumed): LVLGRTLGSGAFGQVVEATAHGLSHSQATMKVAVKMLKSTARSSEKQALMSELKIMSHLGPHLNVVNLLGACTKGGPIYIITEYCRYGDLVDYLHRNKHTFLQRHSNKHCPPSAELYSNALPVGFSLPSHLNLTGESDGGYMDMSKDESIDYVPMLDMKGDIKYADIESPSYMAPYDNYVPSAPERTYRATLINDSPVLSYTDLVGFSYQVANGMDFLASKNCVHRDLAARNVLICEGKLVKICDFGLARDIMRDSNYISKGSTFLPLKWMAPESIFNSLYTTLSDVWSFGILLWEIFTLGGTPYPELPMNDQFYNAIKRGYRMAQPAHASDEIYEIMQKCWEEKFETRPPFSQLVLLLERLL

In the case of `CC[N+]([O-])(CC)CCOc1ccc(Nc2ncc3cc(-c4c(Cl)cccc4Cl)c(=O)n(C)c3n2)cc1` [Example 43, 6-(2,6-Dichlorophenyl)-2-[4-[2-(diethylamino)ethoxyl-thenyl]aminol-8-methyl-pyridor2,3-d]pyrimidin-7 (8H)-one, N^ω -oxide], the IC50 in experiment [1] stood at 70 nM; at C-src kinase it was 15 nM; in experiment [2] it was 63 nM.

For the origin of these results see patent US5945422A, “N-oxides of amino containing pyrido [2,3-D] pyrimidines” (Warner-Lambert Company, priority 1998, dated 1999).
